Results taken from patent US20060293395A1, “Methods for treating a mammal before, during and after cardiac arrest” (priority 2004, published 2006).
“Also recorded” adds a separate entry of the source.

Key:
Male Sprague-Dawley rats [1] = test: Example 2: dobutamine vs levosimendan for post-resuscitation myocardial failure, 8 min untreated VF + 6 min precordial compression; assay type: in vivo, rat
Procedure: The animals were anesthetized following intraperitoneal injection of 45 mg kg^−1 pentobarbital. […] No anesthetic agent was administrated during the 30 minute interval prior to inducing cardiac arrest.
Pressures were measured with a high sensitivity pressure transducer (Model 42584-01; Abbott Critical Care System, North Chicago, Ill.). The optimally damped frequency response of the system was 22 Hz. […] Guided by pressure monitoring, the catheter was slowly withdrawn into the right atrium. Right atrial pressure was measured with reference to the mid-chest with another high sensitivity pressure transducer (Abbott model 42584-01). This catheter also served as an injection site for the thermal tracer. A 4 F polyethylene catheter (model C-PMS401J; Cook Critical Care, Bloomington, Ind.) was advanced through the right external jugular vein into the right atrium. A precurved guide wire supplied with the catheter was then advanced through the catheter into the right ventricle until an endocardial electrogram was observed. Another 23-gauge polyethylene catheter (PE 50) was advanced through the left femoral artery into the abdominal aorta for measurement of aortic pressure with the same Abbott high sensitivity transducer and also for sampling arterial blood. […] The thermocouple provided for measurements of blood temperature and thermodilution cardiac output. […] An additional PE 50 catheter was advanced into right femoral vein for drug infusion. EKG lead II was continuously recorded.
Experimental Procedure: A total of 15 animals were investigated. The investigators were blinded to the intervention until immediately prior to inducing VF, at which time the principal investigator opened a sealed envelope for assignment to one of three groups: (1) levosimendan (2) dobutamine or (3) saline placebo. This allowed time for preparation of a fresh dilution of the selected drug. […] Current flow was continued for 3 minutes to prevent spontaneous defibrillation as previously described (Von Planta I, Weil MH. Cardiopulmonary resuscitation in the rat. J Appl Physiol. 1988;65(6):2641-2647). Ventilation was discontinued after onset of VF. Precordial compression was begun with a pneumatically driven mechanical chest compressor after 8 minutes of untreated VF and continued for 6 minutes. These methods have been extensively exercised and have been well-documented (see Von Plata I (supra)) and Sun SJ, Weil MH, Tang W, et al. Combined effects of buffer and adrenergic agent on postresuscitation myocardial function. J Pharm Exp Ther. 1999;291 :773-777). Coincident with the start of precordial compression, the animals were mechanically ventilated. Tidal volume was established at 6.5 ml per kg animal weight, a frequency of 100 min^−1, and on a FiO2 of 1.0.

Male Sprague-Dawley rats [2] = test: Example 1: post-resuscitation myocardial dysfunction after VF cardiac arrest, drug infusion for 240 min post-resuscitation
male domestic pigs [3] = test: Example 3: dobutamine vs levosimendan in the porcine model of cardiac arrest and cardiac resuscitation; assay type: in vivo, pig
Procedure: Experimental Preparation: The experiments were performed in the porcine model of cardiac arrest and cardiac resuscitation which has been extensively exercised. (21,22). […] Anesthesia was initiated by intramuscular injection of ketamine (20 mg kg^−1) and was completed by ear vein injection of sodium pentobarbital (30 mg kg^−1). Additional 8 mg kg^−1 doses of sodium pentobarbital were injected to maintain anesthesia at intervals of one hour. A cuffed endotracheal tube was advanced into the trachea. Animals were mechanically ventilated with a volume of 15 mL kg^−1, peak airway flow of 40 L min^−1, and FiO2 of 0.2 with the aid of a volume-controlled ventilator (Model MA-1, Puritan-Bennett, Carlsbad, Calif.). End-tidal PCO2 (PETCO2) was monitored with an infrared analyzer (Model 01R-7101A, Nihon Kohden Corp, Tokyo, Japan). Respiratory frequency was adjusted to maintain PETCO2 between 35 and 40 mmHg. Blood temperature was maintained at 37±0.5° C. with the aid of infrared heating lamps, as required.
For the measurement of left ventricular functions, a 5.5/7.5 MHz biplane with pulse-wave Doppler transesophageal echocardiographic tranducer with 4-way flexure (Model 21363A, Hewlett-Packard Co. Medical Products Group, Andover, Mass.) was advanced from the incisor teeth into the esophagus for a distance of approximately 40 cm. For the measurement of aortic pressure, a fluid filled catheter was advanced from the surgically exposed left femoral artery into the thoracic aorta. For measurements of right atrial and pulmonary arterial pressures, blood temperature and cardiac output, a 7-French, pentalumen, thermodilution-tipped catheter was advanced from the surgically exposed left femoral vein and flow-directed into the pulmonary artery. For inducing VF, a 5-French pacing catheter (EP Techologies, Inc., Mountain View, Calif.) was advanced from the surgically exposed right cephalic vein into the right ventricle. […] This catheter was then looped laterally and advanced inferiorly for a distance of 5 cm into the great cardiac vein for sampling of coronary venous blood. The electrocardiographic (EKG) lead II was continuously recorded.
Experimental procedure: A total 15 animals were investigated. […] Cardiac arrest was induced with 1 to 2 mA AC delivered to the endocardium of the right ventricle. Mechanical ventilation was discontinued after onset of VF. At the end of a 7-minute interval of untreated VF, precordial compression (PC) was started with a pneumatic piston-driven chest compressor (Thumper, Model 1000, Michigan Instruments, Grand Rapids, Mich.). Coincident with the start of PC, the animal was mechanically ventilated with a tidal volume of […] and FiO2 of 1.0. […] The compression force was adjusted to decrease the anterior-posterior diameter of the chest by 25%. After 5 minutes of PC, defibrillation was attempted with a 150 J biphasic waveform shock delivered between the right infraclavicular area and the cardiac apex. If an organized cardiac rhythm with mean aortic pressure of more than 60 mm Hg persisted for an interval of 5 minutes or more, the animal was regarded as successfully resuscitated. At 10 minutes after restoration of spontaneous circulation (ROSC), one of the three interventions was begun. […] Levosimendan diluted in physiological salt solution was administered in a loading dose of 20 μg kg^−1, infused over 10 minutes, followed by infusion of 0.4 μg kg^−1 min^−1 also in physiologic salt solution for a total duration of 230 minutes.

male domestic pigs [4] = test: Levosimendan on post-resuscitation myocardial function after beta-adrenergic blockade (propranolol); assay type: in vivo, pig
Procedure: Anesthesia was initiated by intramuscular injection of ketamine (20 mg/kg) and completed by ear vein injection of sodium pentobarbital (30 mg/kg). Additional doses of sodium pentobarbital (8 mg/kg) were injected to maintain anesthesia at intervals of one hour. A cuffed endotracheal tube was advanced into the trachea. Animals were mechanically ventilated with a volume-controlled ventilator (Model MA-1, Puritan-Bennett, Carlsbad, Calif.) with a tidal volume of 15 mL/kg, peak flow of 40 L/min, and FiO2 of 0.21. End-tidal PCO2 (ETCO2) was monitored with an infrared analyzer (Model 01R-7101A, Nihon Kohden Corp, Tokyo, Japan). Respiratory frequency was adjusted to maintain PETCO2 between 35 and 40 mm Hg.
For the measurement of left ventricular functions, a 5.5/7.5 […] biplane with Doppler transesophageal echocardiographic transducer with 4-way flexure (Model 21363A, Hewlett-Packard Co., Medical Products Group, Andover, Mass.) was advanced from the incisor teeth into the esophagus for a distance of approximately 35 cm. For the measurement of aortic pressure, a fluid-filled catheter was advanced from the left femoral artery into the thoracic aorta. For the measurements of right atrial, pulmonary arterial pressures and blood temperature, a 7-French, pentalumen, thermodilution-tipped catheter was advanced from the left femoral vein and flow-directed into the pulmonary artery. A 7-French catheter was advanced from the left cephalic vein into the great cardiac vein for the measurement of great cardiac vein blood gases and lactate. For inducing VF, a 5-French pacing catheter (EP Technologies, Inc., Mountain View, Calif.) was advanced from the right cephalic vein into the right ventricle.
The investigators were blinded to the randomization. Cardiac arrest was induced with 1 to 2 mA AC delivered to the endocardium of the right ventricle. Mechanical ventilation was discontinued after onset of VF. At the end of the 7-min interval of untreated VF, precordial compression was started with a pneumatic piston-driven chest compressor (Thumper, Model 1000, Michigan Instruments, Grand Rapids, Mich.). […] The compression force was adjusted to decrease the anterior-posterior diameter of the chest by 25%. After 5 min of precordial compression, defibrillation was attempted with a 150 J biphasic waveform shock delivered between the right infraclavicular area and the cardiac apex. If an organized cardiac rhythm with mean aortic pressure of more than 60 mm Hg persisted for an interval of 5 min or more, the animal was regarded as successfully resuscitated. All animals had restoration of spontaneous circulation (ROSC) after electrical defibrillation, and were then randomized to three treatment groups: (1) propranolol (0.1 mg/kg bolus at 6 min of VF); (2) propranolol plus levosimendan (at 10 min after post resuscitation, 20 μg/kg over 10 min followed by 0.4 μg/kg/min for 220 min); and (3) equal volumes of saline as placebo.
Measurements were obtained over an interval of 4 hours following resuscitation. After 4 hours, animals were euthanized by intravenous injection of 150 mg kg^−1 pentobarbital. Autopsy was performed to document injuries to the bony thorax and the thoracic and abdominal viscera.

[5] = compared to saline placebo / control (FIG. 27)

SMILES	heart rate (Male Sprague-Dawley rats [1]; after administration, post-resuscitation)	mean arterial pressure (MAP) (Male Sprague-Dawley rats [1]; between the three groups)	duration of survival (Male Sprague-Dawley rats [1]; observed over 72 hours, least with saline placebo (FIG. 15))	cardiac index (Male Sprague-Dawley rats [1]; post-resuscitation (FIG. 13))	dP/dt40 (Male Sprague-Dawley rats [1]; vs saline placebo (FIG. 14))	−dP/dt (Male Sprague-Dawley rats [1]; vs saline placebo (FIG. 14))	arterial pressures (Male Sprague-Dawley rats [2]; among the three groups, at PR10 and after administration of the drugs (FIG. 4))	heart rate (Male Sprague-Dawley rats [2]; post-resuscitation (FIG. 5))	cardiac index (Male Sprague-Dawley rats [2]; post-resuscitation (FIG. 6))	lusitropic (relaxation) effect (Male Sprague-Dawley rats [2]; post-resuscitation (FIG. 10))	stroke volume (Male Sprague-Dawley rats [2]; post-resuscitation, initially (FIG. 7))	heart rate (male domestic pigs [3]; among the three groups)	arterial pressure (male domestic pigs [3]; between levosimendan and dobutamine)	cardiac output (male domestic pigs [3]; vs saline placebo (FIG. 16))	postresuscitation ST segment elevation in ECG limb lead 2 (male domestic pigs [4]; 5 min after resuscitation (FIG. 26))	number of postresuscitation premature ventricular beats (male domestic pigs [4]; 5 min interval after ROSC (FIG. 26))	FAC (male domestic pigs [4]; [5])	Postresuscitation ejection fractions (EF) (male domestic pigs [4]; [5])	total energies of electrical shocks (male domestic pigs [4]; propranolol 0.1 mg/kg bolus at 6 min of VF)	number of electrical shocks (male domestic pigs [4]; propranolol 0.1 mg/kg bolus at 6 min of VF (FIG. 26))
CC(CCc1ccc(O)cc1)NCCc1ccc(O)c(O)c1 (centres unmarked) [Dobutamine]	moderate increase in heart rate	no significant differences	intermediate	significant increases in cardiac index	Significantly greater	Significantly greater	No significant differences	increases in heart rate of borderline significance	comparable increases in cardiac index	more profound lusitropic (relaxation) effect	significantly greater stroke volumes	did not differ	no differences in arterial pressure	Significantly greater cardiac output						
CC(C)NCC(O)COc1cccc2ccccc12 (centres unmarked) [propranolol]															lesser; also recorded: significantly improved	significantly lesser number; also recorded: significantly improved	significantly increased; also recorded: significantly greater	significantly increased; also recorded: significantly greater	significantly lesser total energies	significantly smaller number; also recorded: significantly improved
